What was measured:
[1] = target: Serine/threonine-protein kinase 32C (Homo sapiens) (UniProt Q86UX6); test: Selectivity interaction (KinomeScan (DiscoverX)) EUB0001049a STK32C; details: at 1 µM
[2] = target: Serine/threonine-protein kinase MRCK alpha (Homo sapiens) (UniProt Q5VT25); test: Selectivity interaction (KinomeScan (DiscoverX)) EUB0000666a CDC42BPA; details: at 10 µM
[3] = target: Dual specificity tyrosine-phosphorylation-regulated kinase 1B (Homo sapiens, UniProt Q9Y463); test: Selectivity interaction (KinomeScan (DiscoverX)) EUB0000666a DYRK1B; details: at 10 µM
Sequence of Dual specificity tyrosine-phosphorylation-regulated kinase 1B (Q9Y463 whole entry, looked up): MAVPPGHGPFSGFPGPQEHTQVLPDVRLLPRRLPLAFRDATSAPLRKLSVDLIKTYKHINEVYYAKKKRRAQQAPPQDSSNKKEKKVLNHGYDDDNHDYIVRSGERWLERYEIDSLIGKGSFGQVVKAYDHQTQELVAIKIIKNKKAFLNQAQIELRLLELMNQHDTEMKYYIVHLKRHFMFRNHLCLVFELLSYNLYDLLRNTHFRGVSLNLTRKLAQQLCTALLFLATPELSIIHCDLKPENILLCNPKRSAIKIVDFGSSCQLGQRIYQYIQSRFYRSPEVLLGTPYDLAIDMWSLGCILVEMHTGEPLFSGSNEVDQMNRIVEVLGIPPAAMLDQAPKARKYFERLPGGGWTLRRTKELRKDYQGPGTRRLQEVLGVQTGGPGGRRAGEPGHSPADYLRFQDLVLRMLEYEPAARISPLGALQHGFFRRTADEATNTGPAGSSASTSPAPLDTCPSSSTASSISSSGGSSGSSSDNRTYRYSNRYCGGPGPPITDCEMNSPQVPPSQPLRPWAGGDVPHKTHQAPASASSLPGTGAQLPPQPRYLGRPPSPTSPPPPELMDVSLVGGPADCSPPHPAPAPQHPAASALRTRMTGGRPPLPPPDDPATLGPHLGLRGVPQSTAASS

[4] = target: T1, Protein kinase C epsilon type (Homo sapiens) (UniProt Q02156); test: Selectivity interaction (KinomeScan (DiscoverX)) EUB0000666a PRKCE; details: at 10 µM
T1 sequence (whole entry): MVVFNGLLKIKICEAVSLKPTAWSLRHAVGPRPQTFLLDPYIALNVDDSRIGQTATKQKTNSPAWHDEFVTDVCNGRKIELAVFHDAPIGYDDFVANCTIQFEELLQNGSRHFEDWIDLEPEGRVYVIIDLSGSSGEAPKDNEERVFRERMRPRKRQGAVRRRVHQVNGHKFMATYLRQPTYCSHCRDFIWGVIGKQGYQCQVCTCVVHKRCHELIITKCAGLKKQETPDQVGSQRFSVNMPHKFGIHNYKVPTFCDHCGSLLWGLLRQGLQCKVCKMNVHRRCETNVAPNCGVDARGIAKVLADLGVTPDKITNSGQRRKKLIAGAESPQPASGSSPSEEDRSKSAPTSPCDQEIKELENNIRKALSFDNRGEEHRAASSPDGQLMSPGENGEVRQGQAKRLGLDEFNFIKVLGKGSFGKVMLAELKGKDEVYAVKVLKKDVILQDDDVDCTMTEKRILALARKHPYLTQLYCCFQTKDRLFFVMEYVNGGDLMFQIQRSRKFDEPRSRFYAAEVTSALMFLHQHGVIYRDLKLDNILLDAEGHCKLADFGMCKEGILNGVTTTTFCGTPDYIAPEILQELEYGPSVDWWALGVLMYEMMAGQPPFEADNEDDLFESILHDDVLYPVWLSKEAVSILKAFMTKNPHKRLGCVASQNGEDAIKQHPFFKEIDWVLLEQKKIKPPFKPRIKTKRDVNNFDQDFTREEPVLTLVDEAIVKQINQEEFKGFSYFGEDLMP

[5] = target: Serine/threonine-protein kinase RIO2 (Homo sapiens) (UniProt Q9BVS4); test: Selectivity interaction (KinomeScan (DiscoverX)) EUB0001079a RIOK2; details: at 1 µM
Sequence of Serine/threonine-protein kinase RIO2 (Homo sapiens) (Q9BVS4 whole entry, looked up): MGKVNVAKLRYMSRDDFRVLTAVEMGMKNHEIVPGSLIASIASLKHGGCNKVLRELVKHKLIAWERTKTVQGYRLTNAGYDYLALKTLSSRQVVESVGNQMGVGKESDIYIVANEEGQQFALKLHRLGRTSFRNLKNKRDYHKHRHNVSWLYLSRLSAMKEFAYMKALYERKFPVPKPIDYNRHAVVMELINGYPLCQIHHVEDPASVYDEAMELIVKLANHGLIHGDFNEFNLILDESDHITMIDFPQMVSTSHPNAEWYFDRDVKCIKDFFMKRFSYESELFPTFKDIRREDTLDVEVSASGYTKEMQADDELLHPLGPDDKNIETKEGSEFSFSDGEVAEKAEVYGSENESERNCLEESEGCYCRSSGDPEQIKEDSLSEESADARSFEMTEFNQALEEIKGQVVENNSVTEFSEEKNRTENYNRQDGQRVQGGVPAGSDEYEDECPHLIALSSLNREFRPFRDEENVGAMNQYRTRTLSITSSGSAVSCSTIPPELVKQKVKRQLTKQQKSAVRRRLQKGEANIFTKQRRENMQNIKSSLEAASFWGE

[6] = target: TGF-beta receptor type-2 (Homo sapiens) (UniProt P37173); details: at 10 µM
[7] = target: G protein-coupled receptor kinase 5 (Homo sapiens, UniProt P34947); test: Selectivity interaction (Kinase panel (DSF assay)) EUB0001559a GRK5
Sequence of G protein-coupled receptor kinase 5 (P34947 whole entry, looked up, the tested form may be a part): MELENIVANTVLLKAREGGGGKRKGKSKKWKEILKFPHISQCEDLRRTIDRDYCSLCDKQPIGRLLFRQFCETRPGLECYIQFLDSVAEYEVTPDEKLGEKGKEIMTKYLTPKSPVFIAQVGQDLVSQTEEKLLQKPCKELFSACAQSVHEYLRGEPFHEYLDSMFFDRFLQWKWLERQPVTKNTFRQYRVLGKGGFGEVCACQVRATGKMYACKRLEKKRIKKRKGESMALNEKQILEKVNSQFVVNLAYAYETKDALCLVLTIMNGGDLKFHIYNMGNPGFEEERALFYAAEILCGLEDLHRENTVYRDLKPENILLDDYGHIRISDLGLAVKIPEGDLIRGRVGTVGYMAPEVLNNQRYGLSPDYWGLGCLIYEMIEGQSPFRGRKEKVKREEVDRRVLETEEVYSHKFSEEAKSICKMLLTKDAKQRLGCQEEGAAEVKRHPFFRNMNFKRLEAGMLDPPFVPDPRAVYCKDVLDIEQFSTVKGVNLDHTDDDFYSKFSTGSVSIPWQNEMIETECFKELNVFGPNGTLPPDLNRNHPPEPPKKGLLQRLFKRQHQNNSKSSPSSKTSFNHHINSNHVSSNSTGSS

[8] = target: WD repeat-containing protein 5 (Homo sapiens) (UniProt P61964); test: Selectivity interaction (PWWP, WD40, and Tudor domain panel (DSLS measurements, literature)) EUB0000270b WDR5
[9] = target: Calcium/calmodulin-dependent protein kinase type II subunit beta (Homo sapiens) (UniProt Q13554); test: Selectivity interaction (ActivX KiNativ screen (kinase selectivity in THP-1 cell lysates)) EUB0000639a CAMK2B; type: subcellular; details: lysate
Sequence of Calcium/calmodulin-dependent protein kinase type II subunit beta (Homo sapiens) (Q13554 whole entry): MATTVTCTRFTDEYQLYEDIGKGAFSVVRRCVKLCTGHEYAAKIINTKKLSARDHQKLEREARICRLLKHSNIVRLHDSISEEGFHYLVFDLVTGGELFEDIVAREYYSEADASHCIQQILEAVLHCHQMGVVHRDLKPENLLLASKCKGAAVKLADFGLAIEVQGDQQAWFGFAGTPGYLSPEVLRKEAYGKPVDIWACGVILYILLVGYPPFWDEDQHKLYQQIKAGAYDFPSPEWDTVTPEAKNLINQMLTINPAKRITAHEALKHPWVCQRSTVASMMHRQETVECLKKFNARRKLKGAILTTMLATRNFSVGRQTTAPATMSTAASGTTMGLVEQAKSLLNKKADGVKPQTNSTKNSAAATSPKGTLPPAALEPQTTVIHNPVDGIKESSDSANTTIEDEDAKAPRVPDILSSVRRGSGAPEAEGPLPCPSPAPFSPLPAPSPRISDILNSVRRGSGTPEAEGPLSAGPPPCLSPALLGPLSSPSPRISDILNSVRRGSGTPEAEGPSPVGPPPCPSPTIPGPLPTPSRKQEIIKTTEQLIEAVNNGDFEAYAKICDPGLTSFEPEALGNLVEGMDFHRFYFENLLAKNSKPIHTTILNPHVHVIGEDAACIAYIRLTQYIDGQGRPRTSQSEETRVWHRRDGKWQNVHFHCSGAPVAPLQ

[10] = target: Tyrosine-protein kinase Lck (Homo sapiens, UniProt P06239); test: Selectivity interaction (KinomeScan (DiscoverX)) EUB0000595a LCK; details: at 10 µM
Sequence of Tyrosine-protein kinase Lck (P06239 2-509 limits assumed): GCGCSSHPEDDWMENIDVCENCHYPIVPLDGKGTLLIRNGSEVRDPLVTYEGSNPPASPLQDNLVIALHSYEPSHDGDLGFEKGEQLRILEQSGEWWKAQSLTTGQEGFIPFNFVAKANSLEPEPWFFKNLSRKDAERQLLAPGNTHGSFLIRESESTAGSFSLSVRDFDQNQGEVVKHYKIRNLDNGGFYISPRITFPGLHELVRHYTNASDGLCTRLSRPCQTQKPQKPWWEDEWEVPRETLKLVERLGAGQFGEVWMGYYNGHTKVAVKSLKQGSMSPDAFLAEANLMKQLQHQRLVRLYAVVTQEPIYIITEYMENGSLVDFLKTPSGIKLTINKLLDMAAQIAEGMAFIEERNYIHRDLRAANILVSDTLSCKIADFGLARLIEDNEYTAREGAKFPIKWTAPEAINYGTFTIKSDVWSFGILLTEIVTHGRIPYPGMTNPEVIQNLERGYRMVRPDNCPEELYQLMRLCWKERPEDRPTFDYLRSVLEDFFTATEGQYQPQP

[11] = target: Mitogen-activated protein kinase 3 (Homo sapiens, UniProt P27361); test: Selectivity interaction (KinomeScan (DiscoverX)) EUB0000092b MAPK3; details: at 10 µM
[12] = target: Serine/threonine-protein kinase PAK 6 (Homo sapiens) (UniProt Q9NQU5); test: Selectivity interaction (KinomeScan (DiscoverX)) EUB0000092b PAK6; details: at 10 µM
Sequence of Serine/threonine-protein kinase PAK 6 (Homo sapiens) (Q9NQU5 whole entry, looked up): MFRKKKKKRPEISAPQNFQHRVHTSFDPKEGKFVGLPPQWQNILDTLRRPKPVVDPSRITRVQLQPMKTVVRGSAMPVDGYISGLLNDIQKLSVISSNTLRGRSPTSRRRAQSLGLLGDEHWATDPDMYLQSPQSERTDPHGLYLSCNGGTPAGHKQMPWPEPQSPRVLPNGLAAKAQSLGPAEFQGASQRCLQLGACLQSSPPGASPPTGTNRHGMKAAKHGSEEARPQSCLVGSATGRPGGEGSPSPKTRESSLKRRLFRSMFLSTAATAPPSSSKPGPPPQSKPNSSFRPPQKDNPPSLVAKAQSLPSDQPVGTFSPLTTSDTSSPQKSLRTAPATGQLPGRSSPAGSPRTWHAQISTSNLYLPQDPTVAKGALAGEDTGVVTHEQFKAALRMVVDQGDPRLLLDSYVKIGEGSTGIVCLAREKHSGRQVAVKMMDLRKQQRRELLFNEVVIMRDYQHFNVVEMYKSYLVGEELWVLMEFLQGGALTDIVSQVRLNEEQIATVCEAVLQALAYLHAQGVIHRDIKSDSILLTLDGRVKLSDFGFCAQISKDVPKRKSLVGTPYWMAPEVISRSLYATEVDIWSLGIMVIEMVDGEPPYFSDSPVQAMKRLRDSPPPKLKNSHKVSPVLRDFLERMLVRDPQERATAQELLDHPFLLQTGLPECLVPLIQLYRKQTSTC

[13] = target: RAC-alpha serine/threonine-protein kinase (Homo sapiens, UniProt P31749); test: Selectivity interaction (SelectScreen profiling (Invitrogen)) EUB0000607a AKT1; details: at 2 µM
Sequence of RAC-alpha serine/threonine-protein kinase (P31749 whole entry, canonical isoform): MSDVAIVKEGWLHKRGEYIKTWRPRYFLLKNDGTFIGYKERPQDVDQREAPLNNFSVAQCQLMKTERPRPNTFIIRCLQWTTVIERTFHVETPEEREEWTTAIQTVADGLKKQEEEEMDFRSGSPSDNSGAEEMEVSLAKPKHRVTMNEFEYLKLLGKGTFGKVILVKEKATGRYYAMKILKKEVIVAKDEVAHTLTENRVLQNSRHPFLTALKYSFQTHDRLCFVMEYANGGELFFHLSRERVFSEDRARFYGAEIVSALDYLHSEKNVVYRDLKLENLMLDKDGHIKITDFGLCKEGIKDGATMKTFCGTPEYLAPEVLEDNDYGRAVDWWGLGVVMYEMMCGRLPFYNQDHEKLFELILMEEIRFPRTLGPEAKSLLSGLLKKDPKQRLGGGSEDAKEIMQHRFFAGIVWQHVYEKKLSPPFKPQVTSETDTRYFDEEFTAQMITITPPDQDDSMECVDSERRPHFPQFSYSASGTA

[14] = target: Phosphorylase b kinase gamma catalytic chain, skeletal muscle/heart isoform (Homo sapiens) (UniProt Q16816); test: Selectivity interaction (SelectScreen profiling (Invitrogen)) EUB0000607a PHKG1; details: at 2 µM
Sequence of Phosphorylase b kinase gamma catalytic chain, skeletal muscle/heart isoform (Homo sapiens) (Q16816 whole entry, looked up, canonical isoform): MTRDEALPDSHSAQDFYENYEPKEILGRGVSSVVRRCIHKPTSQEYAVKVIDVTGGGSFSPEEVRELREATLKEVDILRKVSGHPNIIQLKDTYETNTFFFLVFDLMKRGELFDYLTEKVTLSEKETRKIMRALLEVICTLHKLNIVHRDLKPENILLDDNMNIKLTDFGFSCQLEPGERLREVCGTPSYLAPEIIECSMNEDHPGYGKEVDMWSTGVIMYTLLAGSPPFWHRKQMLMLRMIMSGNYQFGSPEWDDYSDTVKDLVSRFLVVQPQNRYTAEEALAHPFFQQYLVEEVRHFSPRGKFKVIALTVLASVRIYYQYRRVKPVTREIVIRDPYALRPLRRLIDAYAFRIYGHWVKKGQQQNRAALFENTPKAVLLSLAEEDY

hERG (KCNH2) = hERG (KCNH2) (Homo sapiens, UniProt Q12809); test: Selectivity interaction (Panel of kinases, GPCRs, ion channels and transporters (enzymatic assay)) EUB0000223bCl KCNH2
[15] = target: T2, Ephrin type-B receptor 1 (Homo sapiens) (UniProt P54762); test: Selectivity interaction (Kinase panel (Z-LYTE Assay)) EUB0001632a EPHB1; details: at 10 µM
T2 sequence (whole entry): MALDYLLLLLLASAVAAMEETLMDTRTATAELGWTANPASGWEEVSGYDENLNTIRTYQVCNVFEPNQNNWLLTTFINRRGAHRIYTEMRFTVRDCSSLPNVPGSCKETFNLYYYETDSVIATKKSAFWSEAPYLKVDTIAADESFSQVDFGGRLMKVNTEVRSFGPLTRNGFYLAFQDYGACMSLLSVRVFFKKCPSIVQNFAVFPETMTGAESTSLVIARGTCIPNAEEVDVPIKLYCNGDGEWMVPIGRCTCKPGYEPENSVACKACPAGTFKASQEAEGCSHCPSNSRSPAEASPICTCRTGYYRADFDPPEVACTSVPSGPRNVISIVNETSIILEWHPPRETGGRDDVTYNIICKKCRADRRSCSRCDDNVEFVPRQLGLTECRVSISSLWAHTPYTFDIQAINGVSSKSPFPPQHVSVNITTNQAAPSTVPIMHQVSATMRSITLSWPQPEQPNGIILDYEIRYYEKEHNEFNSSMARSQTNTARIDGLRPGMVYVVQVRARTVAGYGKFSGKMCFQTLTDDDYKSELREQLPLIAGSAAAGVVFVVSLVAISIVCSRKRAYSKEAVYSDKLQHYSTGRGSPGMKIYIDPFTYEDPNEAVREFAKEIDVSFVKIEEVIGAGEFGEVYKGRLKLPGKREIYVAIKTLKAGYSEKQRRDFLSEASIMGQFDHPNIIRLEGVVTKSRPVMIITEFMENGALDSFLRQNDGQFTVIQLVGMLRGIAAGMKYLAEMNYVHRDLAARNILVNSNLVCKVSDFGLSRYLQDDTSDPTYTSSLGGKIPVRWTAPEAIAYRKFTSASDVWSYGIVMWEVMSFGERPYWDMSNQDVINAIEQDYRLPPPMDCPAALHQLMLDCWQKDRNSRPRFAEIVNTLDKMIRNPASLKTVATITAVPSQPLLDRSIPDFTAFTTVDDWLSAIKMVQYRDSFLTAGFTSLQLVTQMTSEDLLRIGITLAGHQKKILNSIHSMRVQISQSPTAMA

Sequence of Serine/threonine-protein kinase 32C (Homo sapiens) (Q86UX6 whole entry): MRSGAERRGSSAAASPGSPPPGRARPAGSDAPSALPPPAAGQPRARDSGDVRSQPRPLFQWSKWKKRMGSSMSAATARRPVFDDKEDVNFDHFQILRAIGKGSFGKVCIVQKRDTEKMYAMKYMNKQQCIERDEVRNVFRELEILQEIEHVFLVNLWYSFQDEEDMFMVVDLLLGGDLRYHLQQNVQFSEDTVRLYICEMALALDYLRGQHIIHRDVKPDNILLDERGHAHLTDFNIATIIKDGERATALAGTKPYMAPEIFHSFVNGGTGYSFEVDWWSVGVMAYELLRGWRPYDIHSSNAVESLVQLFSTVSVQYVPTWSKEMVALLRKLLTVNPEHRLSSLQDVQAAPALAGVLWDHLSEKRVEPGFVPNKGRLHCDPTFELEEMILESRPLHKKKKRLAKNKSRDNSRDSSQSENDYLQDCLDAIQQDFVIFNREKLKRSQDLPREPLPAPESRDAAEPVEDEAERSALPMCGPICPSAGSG

SMILES: COc1cc(Nc2nc(C)cc(-c3cnn4nc(OC)ccc34)n2)cc(C(F)(F)F)c1
- % of control [1]: 87%

SMILES: O=C(NOC[C@H](O)CO)c1ccc(F)c(F)c1Nc1ccc(I)cc1F
- % of control [2]: 100%
- % of control [3]: 98%
- % of control [4]: 100%

SMILES: Nc1cnc(N2CCc3cc(S(=O)(=O)Nc4c(F)cc(Cl)cc4F)cc(N4CCCC4=O)c32)nc1 [TP-020n]
- % of control [5]: 89%

SMILES: CCN(CC)CCCCNc1ncc2cc(-c3cc(OC)cc(OC)c3)c(NC(=O)NC(C)(C)C)nc2n1
- % of control [6]: 100%

SMILES: CN(C(=O)c1cnn2cccnc12)c1cc2c(cc1N1CCOCC1)C(=O)N(C[C@@H](F)C(C)(C)O)C2
- dTM [7]: 0 K

SMILES: Cc1cc(CN)cc(C)c1-c1ncn(C)c1-c1cncn1C
- dTagg [8]: -0.7 K

SMILES: CC[C@@H]1[C@H](F)C(=O)N[C@@H]1COc1nccc2cc(C(N)=O)c(OC)cc12 [ZIMLOVISERTIB]
- % of inhibition ([9]; at 0.01 µM): 3.3%
- % of inhibition ([9]; at 0.04 µM): 16.7%
- % of inhibition ([9]; at 0.2 µM): 6.9%
- % of inhibition ([9]; at 1 µM): 25.1%
- % of inhibition ([9]; at 5 µM): 56.2%

SMILES: COCC(=O)NC/C=C/c1ccc2ncnc(Nc3ccc(Oc4ccc(C)nc4)c(C)c3)c2c1 [CP-724714]
- % of control [10]: 59%

SMILES: CCC(=O)N1CCN(c2ccc(-n3c(=O)ccc4cnc5ccc(-c6cnc7ccccc7c6)cc5c43)cc2C(F)(F)F)CC1
- % of control [11]: 91%
- % of control [12]: 87%

SMILES: CNC(=O)Nc1ccc(-c2nc(N3CC4CCC(C3)O4)c3cnn(C4CCC5(CC4)OCCO5)c3n2)cc1
- % of inhibition [13]: -5%
- % of inhibition [14]: 7%

SMILES: COc1cc(C(=O)N2CC[C@@H](O)[C@@H](N)C2)cc2nc(-c3cc4ccccc4n3CC3CC3)n(C)c12
- XC50 (hERG (KCNH2)): 31.6 µM

SMILES: Cn1cc(-n2cnc3c(NCc4nc5cc(Cl)c(Cl)cc5[nH]4)nc(N4CCOCC4)nc32)cn1
- % of control [15]: -4.1%
